SMILES strings stand for the structures. In brackets after ≈: the same amount, converted by molar mass. Activity calls are given as the source filed them.

We go through 20 compounds from ChEMBL document CHEMBL1629535, “Novel small molecule inhibitors of MDR Mycobacterium tuberculosis by NMR fragment screening of antigen 85C” (2010).

The target in experiment [1] is Diacylglycerol acyltransferase/mycolyltransferase Ag85C (Mycobacterium tuberculosis) (UniProt P9WQN9). Kind of experiment: Binding affinity to substrate binding site of multidrug resistance Mycobacterium tuberculosis antigen 85C by NMR assay.
Chain of Diacylglycerol acyltransferase/mycolyltransferase Ag85C (Mycobacterium tuberculosis) (P9WQN9 whole entry): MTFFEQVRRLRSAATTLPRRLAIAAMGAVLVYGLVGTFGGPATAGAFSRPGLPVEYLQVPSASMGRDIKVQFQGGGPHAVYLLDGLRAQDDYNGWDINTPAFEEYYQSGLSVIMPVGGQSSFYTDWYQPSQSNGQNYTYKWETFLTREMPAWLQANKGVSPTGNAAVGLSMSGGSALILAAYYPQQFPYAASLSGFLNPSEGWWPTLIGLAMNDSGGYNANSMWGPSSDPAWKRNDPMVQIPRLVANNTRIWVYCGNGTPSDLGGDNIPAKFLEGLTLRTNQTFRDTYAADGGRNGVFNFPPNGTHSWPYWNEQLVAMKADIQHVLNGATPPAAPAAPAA
Experiment [2] relates to Mycobacterium tuberculosis. Nature of the experiment: Growth inhibition of multidrug resistance Mycobacterium tuberculosis 2745/09. The class given is functional.

Turning to `CC(C)C(=O)Nc1sc2c(c1C#N)CCCC2`, the result in experiment [1] was inactive.
As for `Nc1sc2c(c1C(=O)NCc1ccccc1)CCCC2`, the result in experiment [1] was inactive.
As usually defined, the MIC is the smallest concentration in the dilution series that meets the test's criterion for growth inhibition. A lower MIC goes with a more susceptible organism. In experiment [2], `CCCOc1ccc2nc(N)sc2c1` showed an MIC of 20 µg/mL (≈ 96 µM).
As for `N#Cc1c(N)sc2c1CCCCC2`, the result in experiment [1] was Active. The compound further displayed an MIC in experiment [2] of 500 µg/mL (≈ 2600 µM).
As for `N#Cc1c(N)sc2c1CCCC2`, the result in experiment [1] was Active.
For `COC(=O)c1c(N)sc2c1CCCC2`, in experiment [1], the result was Active.
For the compound `CC1CCc2c(sc(N)c2C(N)=O)C1` (stereo not drawn), the result in experiment [1] was Active.
Consider `CCOC(=O)c1c(N)sc2c1C(C)CCC2` (stereo not drawn), for which, in experiment [1], the outcome was Active.
Same read-out and setting: under `CC(=O)c1c(N)sc2c1CCCC2` stands “Active”.
With `CCC1CCc2c(sc(N)c2C#N)C1` (stereo not drawn), the outcome in experiment [1] was Active. For the same compound, the lowest concentration to inhibit growth in experiment [2] (MIC) was 50 µg/mL (≈ 242 µM).
With `N#Cc1c(N)sc2c1C1CCN2CC1`, in experiment [1], the outcome was inactive.
The same measure, in the same setting: under `CCC1(C)Cc2c(sc(N)c2C#N)CO1` (stereo not drawn) stands “inactive”; under `CC1(C)Cc2c(sc(N)c2C#N)CO1`, “inactive”; under `CC1CCc2c(sc(N)c2C#N)C1` (stereo not drawn), “Active”.
As to `CCCC1CCc2c(sc(N)c2C(N)=O)C1` (stereo not drawn), the outcome in experiment [1] was Active.
Turning to `O=c1[nH]c(-c2ccncc2)nc2sc3c(c12)CCCC3`, in experiment [1], the outcome was inactive.
In the case of `CCC1CCc2c(sc(N)c2C(N)=O)C1` (stereo not drawn), the outcome in experiment [1] was Active.
As for `CC(=O)Nc1sc2c(c1C#N)CCCC2`, the result in experiment [1] was inactive.
As for `CCCC1CCc2c(sc(N)c2C#N)C1` (stereo not drawn), the result in experiment [1] was Active. For the same compound, the MIC in experiment [2] turned out to be 50 µg/mL (≈ 227 µM).
Turning to `CCN1CCc2c(sc(N)c2C#N)C1`, in experiment [1], the outcome was inactive.
